According to patent US20260132172A1, “IN VITRO BIOSYNTHESIS OF DIVERSE PYRIDINE-BASED MACROCYCLIC PEPTIDES” (The Brd. of Trustees of the Univ. of Illinois, priority 2022, published 2026):
Where a SMILES comes first, the peptide text is derived from it. The star is where a group is joined. 5FAM = O=C1OC2(c3ccc(O)cc3Oc3cc(O)ccc32)c2ccc(C(=O)*)cc21

How the values were obtained:
MBP-MroB = assay: Fluorescence polarization to measure KD with MroB; assay type: binding, Micromonospora rosaria
Experimental: (§1) All proteins and peptides were prepared in the 0.5× storage buffer before concentration/FP measurement. Experiments were done in triplicates. Stock fluorescein-labeled peptide was measured concentration using A490 (ε: 70,000 M^−1 cm^−1). Initial sample was prepared: 5 nM labelled Δ12MroA1 (for MroD; for MroB, only 2 nM labelled Δ12MroA1 was used), 10 μM MBP-MroB (A280 ε: 178,885 M^−1 cm^−1) or 10 μM MBP-MroD (A280 ε:115,740 M^−1 cm^−1). In a black 96-well plate (Corning 3686), 50 μL of initial sample was added to the first well, followed by 11 3-fold dilutions into subsequent wells containing 5 nM labeled Δ12MroA1. The plate was covered from light and incubated at room temperature for 1 h, and then fluorescence polarization was measured (Biotek Synergy H4 hybrid reader) using the following filter (Excitation: Emission—485 nm/20 nm: 518 nm/20 nm). The obtained data was converted to anisotropy value and plotted against protein concentration. Using the OriginPro software, the data were fitted to receptor depletion equation:^11
(§2) Where: y=anisotropy value, A1=minimum anisotropy, A2=maximum anisotropy, Lt=probe concentration, and x=total enzyme concentration.

MBP-MroD = assay: Fluorescence polarization to measure KD with MroD; assay type: binding, Micromonospora rosaria
Experimental: as §1, §2

MroD [1] = assay: Competition fluorescence polarization with fluorescein-Δ12MroA1, MroD; assay type: binding, Micromonospora rosaria; conditions: competition FP, 80 nM enzyme, 5 nM labeled Δ12MroA1
Experimental: (§3) The initial sample contained 80 nM enzyme, 5 nM labeled Δ12MroA1 peptide, and competitor peptide (concentration is from 20 μM to 100 μM, depending on the experiment). In a black 384-well plate (Corning 3575), 30 μL of initial sample was added to the first well, followed by 13 2-fold dilutions into subsequent wells containing 80 nM MBP-MroB and 5 nM labeled Δ12MroA1. The plate was covered from light and incubated at room temperature for 10 min, and then fluorescence polarization was measured (Biotek Synergy H4 hybrid reader) using the following filter (Ex: Em—485 nm/20 nm: 518 nm/20 nm). The obtained data was converted to anisotropy value and plotted against peptide concentration, and fitted to dose-response function:
(§4) Where: y=anisotropy value, A1=minimum anisotropy, A2=maximum anisotropy, p=Hill's coefficient, x=competitor concentration. The obtained IC50 was used to calculate inhibitor constant Krusing the following equation: 12
(§5) In cases where competitor concentration was not high enough to achieve a plateau, the competition curve was fitted with minimum anisotropy fixed to be the same value as the anisotropy value of the free probe solution. This calculation assumed that the labeled peptide was completely displaced from the enzyme binding pocket at a very high concentration of the competitor. […] The specific minimum anisotropy used in this experiment for both MroB and MroD was 65.

MroB = assay: Competition fluorescence polarization with fluorescein-Δ12MroA1, MroB; assay type: binding, Micromonospora rosaria; conditions: competition FP, 80 nM enzyme, 5 nM labeled Δ12MroA1
Experimental: as §3, §4, §5

MroBCD = MroBCD treatment of precursor peptides, overall pyritide biosynthesis; assay type: biochemical, Micromonospora rosaria; conditions: result in words
Experimental: (§6) In a 0.65 mL protein low-binding Eppendorf tube placed on ice. 0.75 μL of purified mroA variant template DNA was mixed with 0.75 μL of Solution B and 1 μL of Solution A of PURExpress In vitro Protein Synthesis Kit (E6800L) purchased from NEB (total volume of reaction is 2.5 μL). The translation reactions were performed at 37° C. for 1 h on an aluminum block.
For a full MroBCD substrate scope investigation, a total translation volume for each variant of 7.5 μL was performed. 1.5 μL of 90 mM iodoacetamide (IAA) was added to quench dithiothreitol (DTT) in the translation reaction mixture, a thiol-based nucleophile that can react with electrophilic dehydroalanines generated from MroBC-catalyzed dehydration assays. The translation product was split into two parts with these corresponding volumes: 3 μL and 6 μL. In the 6 μL part. 10.2 μL of the enzyme mix containing enzymes and cofactors was added along with 1.8 μL 90 mM ATP (pH 7.5), which was used to initiate the reaction. […]
After incubation, the enzyme reaction (18 μL) was split into two equal parts. […] The crystallized spots were then analyzed using MALDI-TOF-MS (Bruker Ultraflex). […]

MroB/C = MroB/C dehydration (Dha formation) of MroA precursor peptide variants, MALDI-TOF-MS / LC-MS/MS; assay type: biochemical, Micromonospora rosaria; conditions: MroA2 multi-site variants, in vitro translated, MALDI-TOF-MS
Experimental: as §6
For a full MroBCD substrate scope investigation, a total translation volume for each variant of 7.5 μL was performed. 1.5 μL of 90 mM iodoacetamide (IAA) was added to quench dithiothreitol (DTT) in the translation reaction mixture, a thiol-based nucleophile that can react with electrophilic dehydroalanines generated from MroBC-catalyzed dehydration assays. The translation product was split into two parts with these corresponding volumes: 3 μL and 6 μL. In the 6 μL part. 10.2 μL of the enzyme mix containing enzymes and cofactors was added along with 1.8 μL 90 mM ATP (pH 7.5), which was used to initiate the reaction. The enzyme mix was made by adding these components in the following order: HEPES pH 7.5, MgCl2, glutamate, T. bispora tRNA^Glu (CUC), thermostable inorganic pyrophosphatase (TIPP), TEV (L56V/S135G/S219V) (w/w ratio with a total amount of MBP-tagged protein=1:10), MBP-MroB, MBP-MroC, and T. bispora GluRS. The enzyme mix was incubated 25 min at room temperature before adding to the translation product to facilitate in situ TEV-catalyzed cleavage of MBP from MBP-MroB and MBP-MroC. The enzymatic reaction proceeded for 1 h at room temperature. Overall, the concentration of components in the 18 μL reaction mix is as follows: 50 mM HEPES pH 7.5, 5 mM MgCl2. L-glutamate 1 mM, 3 μM T. bispora tRNA^Glu, 1 μM T. bispora GluRS, 2 μM MBP-MroB, 2 μM MBP-MroC, […], 0.027 U/μL TIPP, and 5 mM IAA. In addition, the 3 μL part was incubated with the same buffer lacking enzymes and tRNA as a translation control.
The reactions were performed similarly as described above, with 10 μM substrate concentration and without IAA. The total volume of each reaction is 100 μL.
Enzymatic assays were desalted using solid-phase extraction prior to LC-ESI-MS/MS analysis. Specifically, except for the thiazol(in)es-containing pyritide (which utilize 8 mg Pierce C18 Spin Column), the samples were applied to Toptip C18 (10-200 μL, Glygen Corp) wetted with 50 μL of 80% acetonitrile (0.1% formic acid) and equilibrate with 150 μL of 0.1% formic acid following the manufacturer instructions. The C18 columns (tips) are then washed with 150 μL of 0.1% formic acid and eluted using 100 μL 80% acetonitrile (0.1% formic acid). The samples were then dried utilizing lyophilization and redissolved in 25% acetonitrile (80 μL for enzymatic assays of in vitro-translated substrates and 200 μL for enzymatic assays of purified substrates). Then 20 μL of each sample was injected into an Agilent AdvanceBio Peptide Plus column (2.1×150 mm, 2.7 μm) equipped with an Agilent 6545B Q-TOF interfaced with an Agilent 1290 Infinity II LC system. Mobile phase solvents were composed of H2O, 0.1% formic acid (Solvent A), and acetonitrile 0.1% formic acid (Solvent B). The column compartment was maintained at 35° C. during all experiments. The column was equilibrated with 5 column volumes of starting mobile phase (95% A and 5% B) between injections. The gradient of all LC runs was as follows: 0-2 min: 95% A 5% B, 2-3 min: 70% A 30% B, 3-18 min: 20% A 80% B, 18-20 min: 5% A 95% B. The samples were run to waste for the first 3 min before applying to the mass spectrometer. Mass range was set from 100 to 1700 m/z (except for 412MroA1 W7G: 100-3000 m/z). MS parameters were as follows: gas, 320° C. at 8 L/min: nebulizer, 35 psig: nozzle voltage, 1000 V: sheath gas, 350° C. at 11 L/min: capillary, 3500 V: fragmentor, 125 V: skimmer, 65 V: MS scan rate (10) spectra/s): MS-MS scan rate (5 spectra/s); and isolation width (MS/MS), 1.3 m z. […]

MroD [2] = assay: MroD [4+2] macrocyclization of didehydrated MroA2 variants, MALDI-TOF-MS; assay type: biochemical, Micromonospora rosaria; design: key: +++ indicates enzyme activity roughly equal to wild-type MroA2; ++ indicates modestly reduced enzyme activity; + indicates severely reduced enzyme activity; − indicates no detectable enzyme activity (no macrocycles observed); conditions: MroA2 multi-site variants; qualitatively estimated from leader peptide vs remaining didehydrated intermediate
Experimental: (§7) After incubation, the enzyme reaction (18 μL) was split into two equal parts. One part was treated with MBP-MroD such that the final concentration of MBP-MroD is 3 μM, and the other part was added the same volume but with buffer lacking MBP-MroD (50 mM HEPES, 300 mM NaCl, 2.5% glycerol, 0.5 mM TCEP). The reaction further proceeded for 1.5 h at room temperature. All reaction mixture was then desalted with solid-phase extraction using Ziptip with 0.6 μL C18 resin (EMD Millipore) and crystallized on an MTP384 steel target plate using either saturated sinapic acid or 50 mg/mL Super DHB [dissolved in 60% acetonitrile and 0.1% trifluoroacetic acid (TFA)] as the matrix. The crystallized spots were then analyzed using MALDI-TOF-MS (Bruker Ultraflex). The external standard for MALDI-TOF-MS analysis is ProteoMass Peptide and Protein MALDI-MS Calibration Kit (Sigma).

MroD [3] = assay: as above; assay type: biochemical, Micromonospora rosaria; conditions: MroA2 multi-site variants; qualitatively estimated from leader peptide vs remaining didehydrated intermediate
Experimental: as §7

[4] = molecular target: MBP-MroB (Micromonospora rosaria MroB with maltose-binding protein fused to the N-terminus) (Micromonospora rosaria) [MBP: P0AEX9]; assay: fluorescence polarization, MBP-MroB titrated against labeled peptide
[5] = molecular target: MBP-MroD (Micromonospora rosaria MroD with maltose-binding protein fused to the N-terminus) (Micromonospora rosaria) [MBP: P0AEX9]; assay: fluorescence polarization, MBP-MroD titrated against labeled peptide

## CC[C@H](C)[C@H](NC(=O)[C@@H](NC(=O)[C@H](Cc1c[nH]c2ccccc12)NC(=O)[C@H](CO)NC(=O)CNC(=O)[C@H](CC(C)C)NC(=O)[C@H](Cc1c[nH]c2ccccc12)NC(=O)CNC(=O)[C@H](CO)NC(=O)[C@H](C)NC(=O)CNC(=O)[C@@H](NC(=O)[C@H](CCC(=O)O)NC(=O)[C@@H](NC(=O)[C@H](CC(N)=O)NC(=O)CNC(=O)[C@H](CC(C)C)NC(=O)CNC(=O)CNC(=O)[C@@H](NC(=O)[C@H](CO)NC(=O)[C@H](CC(C)C)NC(=O)[C@H](C)NC(=O)[C@H](C)NC(=O)[C@H](CC(C)C)NC(=O)[C@H](CCC(=O)O)NC(=O)[C@H](CCC(=O)O)NC(=O)[C@H](CC(=O)O)NC(=O)[C@@H](NC(=O)[C@H](C)NC(=O)[C@H](CC(C)C)NC(=O)[C@H](CC(=O)O)NC(=O)[C@H](CC(C)C)NC(=O)[C@H](CC(=O)O)NC(=O)[C@@H](NC(=O)[C@@H](NC(=O)[C@H](CC(=O)O)NC(=O)[C@H](CC(C)C)NC(=O)[C@H](CC(=O)O)NC(=O)[C@H](CO)NC(=O)c1ccc2c(c1)C(=O)OC21c2ccc(O)cc2Oc2cc(O)ccc21)[C@@H](C)CC)C(C)C)C(C)C)C(C)C)[C@@H](C)O)C(C)C)C(C)C)C(=O)O [fluorescein-Δ12MroA1] (5FAM-SDLDIVDLDLAVDEELAALSVGGLGNTEVGASGWLGSWVI-OH)
MBP-MroB
  Kd: ~60 nM
MBP-MroD
  Kd: ~12 nM

## H-SDLDIVDLDLAVDEELAALSVGGLGNTEVGASGWLGSWVI-OH [Δ12MroA1]
MroD [1]
  IC50: 900 ± 20 nM
MroB
  IC50: 680 ± 40 nM
MroBCD
  overall pyritide biosynthesis (dehydration and macrocyclization) by MroBCD: full dehydration and macrocyclization

## SGFFGRSWLI [MroA2, wild-type precursor peptide of M. rosaria]
MroB/C
  Dha formation: 2 Dha
MroD [2]
  Relative MroD conversion: +++
MroBCD
  overall pyritide biosynthesis (dehydration and macrocyclization) by MroBCD: yielding the expected pyritides

## SGIAKAGQSWLI [Number 28]
MroD [3]
  Relative MroD conversion: 1
MroB/C
  Dha formation: 2 Dha

## fluorescein-Δ12MroA1 (Δ12MroA1 N-terminally labeled with fluorescein) (peptide)
[4]
  Kd: 60 nM
[5]
  Kd: 12 nM
